# In US9469650B2, “Melampomagnolide B derivatives” (BOARD OF TRUSTEES OF THE UNIVERSITY OF ARKANSAS, priority 2013, dated 2016):
# Legend:
# [1] = test system: MDA-MB-468; assay: panel of 60 human tumor cell lines, growth inhibition (Breast Cancer); conditions: MDA-MB-468
# [2] = test system: SR; assay: panel of 60 human tumor cell lines, growth inhibition (Leukemia)
# [3] = test system: UACC-257; assay: panel of 60 human tumor cell lines, growth inhibition (Melanoma); conditions: UACC-257
# [4] = test system: HOP-92; assay: panel of 60 human tumor cell lines, growth inhibition (Non-Small Cell Lung Cancer); conditions: HOP-92
# [5] = test system: MDA-MB-435; assay: panel of 60 human tumor cell lines, growth inhibition (Melanoma); conditions: MDA-MB-435
# [6] = test system: SF-539; assay: panel of 60 human tumor cell lines, growth inhibition (CNS Cancer); conditions: SF-539
# [7] = test system: COLO 205; assay: panel of 60 human tumor cell lines, growth inhibition (Colon Cancer); conditions: COLO 205
# [8] = test system: SF-268; assay: panel of 60 human tumor cell lines, growth inhibition (CNS Cancer); conditions: SF-268
# [9] = test system: CCRF-CEM; assay: panel of 60 human tumor cell lines, growth inhibition (Leukemia)
# [10] = test system: OVCAR-8; assay: panel of 60 human tumor cell lines, growth inhibition (Ovarian Cancer); conditions: OVCAR-8
# [11] = test system: HCT-15; assay: panel of 60 human tumor cell lines, growth inhibition (Colon Cancer); conditions: HCT-15
# [12] = test system: RXF 393; assay: panel of 60 human tumor cell lines, growth inhibition (Renal Cancer); conditions: RXF 393
# [13] = test system: K-562; assay: panel of 60 human tumor cell lines, growth inhibition (Leukemia); conditions: K-562
# [14] = test system: A498; assay: panel of 60 human tumor cell lines, growth inhibition (Renal Cancer); conditions: A498
# [15] = test system: NCI-H322M; assay: panel of 60 human tumor cell lines, growth inhibition (Non-Small Cell Lung Cancer)
# [16] = test system: UACC-62; assay: panel of 60 human tumor cell lines, growth inhibition (Melanoma); conditions: UACC-62
# [17] = test system: OVCAR-5; assay: panel of 60 human tumor cell lines, growth inhibition (Ovarian Cancer); conditions: OVCAR-5
smiles,measurement,setting,value
C=C1C(=O)O[C@H]2[C@H]1CC/C(COC(=O)NCCO)=C\CC[C@@]1(C)O[C@@H]21 [JVM 2-50],Percent Growth,[1]; Log10 Concentration −4.0,−67%
same,Percent Growth,[1]; Log10 Concentration −5.0,−12%
same,Percent Growth,[1]; Log10 Concentration −6.0,67%
same,Percent Growth,[1]; Log10 Concentration −7.0,91%
same,Percent Growth,[1]; Log10 Concentration −8.0,98%
same,GI50,[1]; NCI five dose,1.64 µM
same,TGI,[1]; NCI five dose,7.01E−6
same,Percent Growth,[2]; Log10 Concentration −4.0,−30%
same,Percent Growth,[2]; Log10 Concentration −5.0,18%
same,Percent Growth,[2]; Log10 Concentration −6.0,91%
same,Percent Growth,[2]; Log10 Concentration −7.0,100%
same,Percent Growth,[2]; Log10 Concentration −8.0,100%
same,GI50,[2]; NCI five dose,3.67 µM
same,Percent Growth,[3]; Log10 Concentration −4.0,−73%
same,Percent Growth,[3]; Log10 Concentration −5.0,44%
same,Percent Growth,[3]; Log10 Concentration −6.0,65%
same,Percent Growth,[3]; Log10 Concentration −7.0,90%
same,Percent Growth,[3]; Log10 Concentration −8.0,95%
same,GI50,[3]; NCI five dose,7 µM
same,TGI,[3]; NCI five dose,2.37E−5
same,Percent Growth,[4]; Log10 Concentration −4.0,−88%
same,Percent Growth,[4]; Log10 Concentration −5.0,13%
same,Percent Growth,[4]; Log10 Concentration −6.0,94%
same,Percent Growth,[4]; Log10 Concentration −7.0,86%
same,Percent Growth,[4]; Log10 Concentration −8.0,90%
same,GI50,[4]; NCI five dose,3.49 µM
same,TGI,[4]; NCI five dose,1.35E−5
same,Percent Growth,[5]; Log10 Concentration −4.0,−84%
same,Percent Growth,[5]; Log10 Concentration −5.0,40%
same,Percent Growth,[5]; Log10 Concentration −6.0,91%
same,Percent Growth,[5]; Log10 Concentration −7.0,96%
same,Percent Growth,[5]; Log10 Concentration −8.0,91%
same,GI50,[5]; NCI five dose,6.37 µM
same,TGI,[5]; NCI five dose,2.10E−5
same,Percent Growth,[6]; Log10 Concentration −4.0,−85%
same,Percent Growth,[6]; Log10 Concentration −5.0,54%
same,Percent Growth,[6]; Log10 Concentration −6.0,93%
same,Percent Growth,[6]; Log10 Concentration −7.0,95%
same,Percent Growth,[6]; Log10 Concentration −8.0,95%
same,GI50,[6]; NCI five dose,10.8 µM
same,TGI,[6]; NCI five dose,2.46E−5
same,Percent Growth,[7]; Log10 Concentration −4.0,−80%
same,Percent Growth,[7]; Log10 Concentration −5.0,21%
same,Percent Growth,[7]; Log10 Concentration −6.0,108%
same,Percent Growth,[7]; Log10 Concentration −7.0,106%
same,Percent Growth,[7]; Log10 Concentration −8.0,96%
same,GI50,[7]; NCI five dose,4.87 µM
same,TGI,[7]; NCI five dose,1.62E−5
same,Percent Growth,[8]; Log10 Concentration −4.0,−51%
same,Percent Growth,[8]; Log10 Concentration −5.0,90%
same,Percent Growth,[8]; Log10 Concentration −6.0,100%
same,Percent Growth,[8]; Log10 Concentration −7.0,99%
same,Percent Growth,[8]; Log10 Concentration −8.0,99%
same,GI50,[8]; NCI five dose,19.3 µM
same,TGI,[8]; NCI five dose,4.38E−5
same,Percent Growth,[9]; Log10 Concentration −4.0,−44%
same,Percent Growth,[9]; Log10 Concentration −5.0,1%
same,Percent Growth,[9]; Log10 Concentration −6.0,83%
same,Percent Growth,[9]; Log10 Concentration −7.0,102%
same,Percent Growth,[9]; Log10 Concentration −8.0,98%
same,GI50,[9]; NCI five dose,2.52 µM
same,TGI,[9]; NCI five dose,1.03E−5
same,Percent Growth,[10]; Log10 Concentration −4.0,−25%
same,Percent Growth,[10]; Log10 Concentration −5.0,62%
same,Percent Growth,[10]; Log10 Concentration −6.0,97%
same,Percent Growth,[10]; Log10 Concentration −7.0,96%
same,Percent Growth,[10]; Log10 Concentration −8.0,98%
same,GI50,[10]; NCI five dose,13.7 µM
same,TGI,[10]; NCI five dose,5.15E−5
same,Percent Growth,[11]; Log10 Concentration −4.0,−71%
same,Percent Growth,[11]; Log10 Concentration −5.0,16%
same,Percent Growth,[11]; Log10 Concentration −6.0,94%
same,Percent Growth,[11]; Log10 Concentration −7.0,95%
same,Percent Growth,[11]; Log10 Concentration −8.0,93%
same,GI50,[11]; NCI five dose,3.7 µM
same,TGI,[11]; NCI five dose,1.54E−5
same,Percent Growth,[12]; Log10 Concentration −4.0,−68%
same,Percent Growth,[12]; Log10 Concentration −5.0,20%
same,Percent Growth,[12]; Log10 Concentration −6.0,98%
same,Percent Growth,[12]; Log10 Concentration −7.0,93%
same,Percent Growth,[12]; Log10 Concentration −8.0,91%
same,GI50,[12]; NCI five dose,4.14 µM
same,TGI,[12]; NCI five dose,1.69E−5
same,Percent Growth,[13]; Log10 Concentration −4.0,−25%
same,Percent Growth,[13]; Log10 Concentration −5.0,23%
same,Percent Growth,[13]; Log10 Concentration −6.0,100%
same,Percent Growth,[13]; Log10 Concentration −7.0,110%
same,Percent Growth,[13]; Log10 Concentration −8.0,119%
same,GI50,[13]; NCI five dose,4.51 µM
same,TGI,[13]; NCI five dose,3.02E−5
same,Percent Growth,[14]; Log10 Concentration −4.0,−25%
same,Percent Growth,[14]; Log10 Concentration −5.0,58%
same,Percent Growth,[14]; Log10 Concentration −6.0,60%
same,Percent Growth,[14]; Log10 Concentration −7.0,68%
same,Percent Growth,[14]; Log10 Concentration −8.0,74%
same,GI50,[14]; NCI five dose,12.4 µM
same,TGI,[14]; NCI five dose,5.01E−5
same,Percent Growth,[15]; Log10 Concentration −4.0,32%
same,Percent Growth,[15]; Log10 Concentration −5.0,109%
same,Percent Growth,[15]; Log10 Concentration −6.0,105%
same,Percent Growth,[15]; Log10 Concentration −7.0,109%
same,Percent Growth,[15]; Log10 Concentration −8.0,105%
same,GI50,[15]; NCI five dose,58.8 µM
same,TGI,[15]; NCI five dose,>1.00E−4
same,Percent Growth,[16]; Log10 Concentration −4.0,−84%
same,Percent Growth,[16]; Log10 Concentration −5.0,62%
same,Percent Growth,[16]; Log10 Concentration −6.0,97%
same,Percent Growth,[16]; Log10 Concentration −7.0,93%
same,Percent Growth,[16]; Log10 Concentration −8.0,93%
same,GI50,[16]; NCI five dose,12 µM
same,TGI,[16]; NCI five dose,2.65E−5
same,Percent Growth,[17]; Log10 Concentration −4.0,−54%
same,Percent Growth,[17]; Log10 Concentration −5.0,68%
same,Percent Growth,[17]; Log10 Concentration −6.0,85%
same,Percent Growth,[17]; Log10 Concentration −7.0,91%
same,Percent Growth,[17]; Log10 Concentration −8.0,89%
same,GI50,[17]; NCI five dose,14 µM
same,TGI,[17]; NCI five dose,1.59E−5
